Test results taken from patent publication US10640802B2 (priority 2012, dated 2020).
Entries after “also recorded” stand apart in the source; their conditions may differ. Like-named read-outs stand apart in the source and are kept apart here.

Legend:
wild type AfArsR = type: binding, Acidithiobacillus ferrooxidans
[1] = test system: C102S biosensor co-cultured with Burkholderia sp. MR1; type: cell-based, E. coli / Burkholderia sp. MR1
[2] = test system: Acidithiobacillus ferrooxidans AfArsR variant C102S (Cys102 eliminated by mutation; pBADarsR / parsO-gfp biosensor in E. coli AW3110); type: cell-based
[3] = test system: E. coli AW3110 biosensor cells
[4] = target: T1, Acidithiobacillus ferrooxidans AfArsR variant C102S (Cys102 to serine) (Acidithiobacillus ferrooxidans, UniProt B7J952, C102S); type: biochemical
T1 sequence (B7J952 1-118 C102S): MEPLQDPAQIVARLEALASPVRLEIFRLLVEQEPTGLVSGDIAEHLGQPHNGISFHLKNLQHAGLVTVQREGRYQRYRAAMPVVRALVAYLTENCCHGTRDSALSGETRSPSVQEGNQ

[5] = test system: Acidithiobacillus ferrooxidans AfArsR, wild type (pBADarsR / pACYC184-parsO-gfp biosensor in E. coli AW3110); type: cell-based
[6] = target: Acidithiobacillus ferrooxidans AfArsR repressor, wild type (Acidithiobacillus ferrooxidans, UniProt B7J952); type: biochemical; conditions: pH 7.5
Acidithiobacillus ferrooxidans AfArsR repressor, wild type, sequence (B7J952 1-118): as the sequence (B7J952 1-118 C102S) above, with S102C counted along it

[7] = target: T1, Acidithiobacillus ferrooxidans AfArsR variant C102S (Cys102 to serine); conditions: previously observed; cited from earlier work
[8] = test system: C102S mutant biosensor (E. coli strain AW3110); type: cell-based
[9] = test system: AfarsR-gfp biosensor (E. coli strain AW3110 bearing pBADarsR and pACYC184-parsO-gfp); type: cell-based
AfArsR C102S mutant = type: binding, Acidithiobacillus ferrooxidans
[10] = read-out: apparent half maximal concentration required for induction

Molecule: arsenate [As(V)]
- effect on anisotropy of the AfArsR-DNA complex (wild type AfArsR): no effect

Molecule: O=[As](O)(O)c1ccccc1 [PAA, phenylarsonic acid]
- response of biosensor co-cultured with Burkholderia [1]: didn't respond

Molecule: C[As](O)O [MAs(III), methylarsenite]
- induction / derepression of gfp expression [2]: proportional to the concentration of the inducer; also recorded: high levels of fluorescence
- EC50 ([2]; read-out: apparent half maximal concentration for induction): ~3 µM
- toxic at concentrations in excess of [3]: > 10^−5 M
- binding / recognition by C102S [4]: still senses; also recorded: same binding affinity
- response (anisotropy), concentration range [4]: sub-micromolar range
- response to MAs(III), Rox(III) and PhAs(III) relative to wild type [4]: slightly higher than the wild type
- induction / derepression of gfp expression [5]: proportional to the concentration of the inducer; also recorded: induced gfp expression
- EC50 [5, 10]: ~3 µM

Molecule: O[As](O)O [As(III), arsenite]
- induction / derepression of gfp expression [2]: not responsive; also recorded: did not respond
- response to As(III) [2]: no response
- decrease in cellular fluorescence and growth [3]: ≥ 40 pM
- binding / recognition by C102S [4]: lack of binding; also recorded: no longer recognizes; also recorded: lost its binding ability
- response (anisotropy) [4]: little response
- EC50 ([6]; read-out: concentration required to decrease anisotropy of AfArsR-DNA complex (half-maximal)): ~10 µM
- EC50 ([6]; read-out: half-maximal concentration decreasing anisotropy of AfArsR-DNA complex): ~10 µM
- concentrations sensed by the original biosensor [5]: micromolar concentrations
- induction / derepression of gfp expression [5]: derepressed gfp expression; also recorded: dissociated AfArsR from pars, derepressing gfp expression; also recorded: induced gfp expression
- linear response around concentration [5]: ~10 ppb
- response of the biosensor [5]: practically no response
- reduction of affinity by substitution of Cys102 with serine [7]: nearly an order of magnitude

Molecule: Sb(III) [listing 1 of 2 here]
- induction / derepression of gfp expression [5]: induced gfp expression

Molecule: arsenite [As(III)]
- biosensor response (gfp derepression) [8]: did not respond
- response of Cys102-lacking biosensor [8]: no response
- response of mutant biosensor [8]: no response
- response to addition of arsenite [8]: not responsive
- biosensor response [9]: practically no response
- biosensor response (gfp derepression) [9]: induced
- concentration around which the response is linear [9]: ~10 ppb
- gfp expression upon addition of arsenite [9]: derepressed gfp expression; also recorded: derepressing gfp expression
- induction of gfp expression [9]: induced gfp expression
- EC50 [9, 10]: ~10 µM
- binding by purified AfArsR C102S mutant (AfArsR C102S mutant): lost its binding ability
- response of C102S AfArsR (anisotropy) (AfArsR C102S mutant): little response
- EC50 (wild type AfArsR; read-out: half-maximal concentration for decrease of anisotropy): ~10 µM

Molecule: Sb(III) [listing 2 of 2 here]
- induction of gfp expression [9]: induced gfp expression

Molecule: O=[N+]([O-])c1cc([As](=O)(O)O)ccc1O [Rox(V), 3-nitro-4-hydroxybenzenearsonic acid]
- biosensor response (gfp derepression) [8]: unresponsive
- response of biosensor co-cultured with Burkholderia [1]: didn't respond; also recorded: didn't show fluorescent
- biosensor response (gfp derepression) [9]: unresponsive
